# Measured values published in PubChem BioAssay AID248 (DTP/NCI, 2004).
# Several values for one entry are separate records, joined by “and”; a condition that tells them apart may be missing. Equal values may be shown once. Toxic doses and inconclusive results are not listed.
# Tested on: L1210 leukemia ip in BDF1 mice, survival T/C
# Assay: NCI In Vivo Anticancer Drug Screen. Data for tumor model L1210 Leukemia (intraperitoneal) in B6D2F1 (BDF1) mice
# Conditions: endpoint: mean survival time, higher = longer survival
# In short: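 Value reflects the ratio of survival in compound-treated mice to survival in vehicle-treated controls, with both groups carrying the same transplanted tumor.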
# [1] = dose: 100.0 mg/kg/injection, schedule: Q01DX001 (ip), vehicle: Klucel (hydroxypropylcellulose) (HPC)
# [2] = dose: 100.0 mg/kg/injection, schedule: Q01DX001 (ip), vehicle: saline
# [3] = dose: 6.25 mg/kg/injection, schedule: Q01DX001 (ip), vehicle: saline
# [4] = dose: 12.5 mg/kg/injection, schedule: Q01DX001 (ip), vehicle: saline
# [5] = dose: 25.0 mg/kg/injection, schedule: Q01DX009 (ip), vehicle: saline with Tween-80
# [6] = dose: 50.0 mg/kg/injection, schedule: Q01DX009 (ip), vehicle: saline with Tween-80
# [7] = dose: 100.0 mg/kg/injection, schedule: Q01DX009 (ip), vehicle: saline with Tween-80
# [8] = dose: 50.0 mg/kg/injection, schedule: Q01DX009 (ip), vehicle: saline
# [9] = dose: 100.0 mg/kg/injection, schedule: Q01DX009 (ip), vehicle: saline
# [10] = dose: 100.0 mg/kg/injection, schedule: Q04DX002 (ip), vehicle: Klucel (hydroxypropylcellulose) (HPC)
# [11] = dose: 200.0 mg/kg/injection, schedule: Q04DX002 (ip), vehicle: Klucel (hydroxypropylcellulose) (HPC)
# [12] = dose: 200.0 mg/kg/injection, schedule: Q04DX002 (ip), vehicle: saline with Tween-80
structure (smiles),measurement,setting,value
Cc1ccc(S(=O)(=O)N=S(CCCl)CCCl)cc1,T/C,"dose: 100.0 mg/kg/injection, schedule: Q04DX002 (ip), vehicle: saline",92 % of control
same,T/C,"dose: 200.0 mg/kg/injection, schedule: Q04DX002 (ip), vehicle: saline",99 % of control
same,T/C,"dose: 400.0 mg/kg/injection, schedule: Q04DX002 (ip), vehicle: saline",101 % of control
COc1ccccc1-n1c(O)c(N=Nc2ccccc2C)c(=O)n(-c2ccc(Cl)cc2)c1=S,T/C,[1],95 % of control
same,T/C,"dose: 200.0 mg/kg/injection, schedule: Q01DX001 (ip), vehicle: Klucel (hydroxypropylcellulose) (HPC)",96 % of control
same,T/C,"dose: 400.0 mg/kg/injection, schedule: Q01DX001 (ip), vehicle: Klucel (hydroxypropylcellulose) (HPC)",98 % of control
O=C(CCCC(=O)N/N=C/c1ccc(-c2ccccc2)cc1)N/N=C\c1ccc(-c2ccccc2)cc1,T/C,"dose: 50.0 mg/kg/injection, schedule: Q01DX001 (ip), vehicle: saline",96 % of control
same,T/C,[2],98 % of control
same,T/C,"dose: 200.0 mg/kg/injection, schedule: Q01DX001 (ip), vehicle: saline",96 % of control
same,T/C,"dose: 400.0 mg/kg/injection, schedule: Q01DX001 (ip), vehicle: saline",96 % of control
CS(=O)(=O)Nc1ccc(Nc2c3ccccc3nc3cc([N+](=O)[O-])ccc23)cc1,T/C,"dose: 0.02 mg/kg/injection, schedule: Q01DX009 (ip), vehicle: saline",118 % of control
same,T/C,"dose: 0.1 mg/kg/injection, schedule: Q01DX009 (ip), vehicle: acetone",119 % of control
same,T/C,"dose: 0.15 mg/kg/injection, schedule: Q01DX009 (ip), vehicle: acetone",112 % of control
same,T/C,"dose: 0.16 mg/kg/injection, schedule: Q01DX009 (ip), vehicle: saline",153 % of control
same,T/C,"dose: 0.6 mg/kg/injection, schedule: Q01DX001 (ip), vehicle: acetone",116 % of control
same,T/C,"dose: 0.82 mg/kg/injection, schedule: Q01DX009 (ip), vehicle: acetone",151 % of control
same,T/C,"dose: 1.25 mg/kg/injection, schedule: Q01DX009 (ip), vehicle: saline",164 % of control
same,T/C,"dose: 1.25 mg/kg/injection, schedule: Q01DX009 (sc), vehicle: Klucel (hydroxypropylcellulose) (HPC)",113 % of control
same,T/C,"dose: 1.56 mg/kg/injection, schedule: Q04DX003 (ip), vehicle: saline",107 % of control
same,T/C,"dose: 2.5 mg/kg/injection, schedule: Q01DX009 (ip), vehicle: saline",156 % of control and 220 % of control
same,T/C,"dose: 2.5 mg/kg/injection, schedule: Q01DX009 (sc), vehicle: Klucel (hydroxypropylcellulose) (HPC)",118 % of control
same,T/C,"dose: 3.12 mg/kg/injection, schedule: Q04DX003 (ip), vehicle: saline",107 % of control
same,T/C,"dose: 3.13 mg/kg/injection, schedule: Q01DX001 (ip), vehicle: saline",151 % of control
same,T/C,"dose: 5.0 mg/kg/injection, schedule: Q01DX009 (ip), vehicle: saline",184 % of control
same,T/C,[3],159 % of control
same,T/C,"dose: 6.25 mg/kg/injection, schedule: Q04DX003 (ip), vehicle: saline",107 % of control
same,T/C,"dose: 10.0 mg/kg/injection, schedule: Q01DX009 (sc), vehicle: Klucel (hydroxypropylcellulose) (HPC)",195 % of control
same,T/C,[4],161 % of control
same,T/C,"dose: 25.0 mg/kg/injection, schedule: Q01DX001 (ip), vehicle: saline",240 % of control
same,T/C,[2],168 % of control
CC(C)CCCC(C)C1CCC2C3CC=C4CC(OCCO)CCC4(C)C3CCC12C (stereo not given),T/C,"dose: 100.0 mg/kg/injection, schedule: Q01DX009 (ip), vehicle: other",87 % of control
same,T/C,"dose: 200.0 mg/kg/injection, schedule: Q01DX009 (ip), vehicle: other",105 % of control
COc1ccccc1OC(=O)CCl,T/C,[5],90 % of control
same,T/C,[6],93 % of control
same,T/C,[7],93 % of control
Cc1cc(Br)c2c(c1O)C13CCN(C)C(C2)C1CC(Br)C(=O)C3 (stereo not given),T/C,"dose: 1.56 mg/kg/injection, schedule: Q01DX001 (ip), vehicle: saline",97 % of control
same,T/C,"dose: 3.12 mg/kg/injection, schedule: Q01DX001 (ip), vehicle: saline",100 % of control
same,T/C,[3],105 % of control
same,T/C,[4],108 % of control
COc1ncnc2c1c(C#N)cn2C1OC(CO)C(O)C1O (stereo not given),T/C,"dose: 6.25 mg/kg/injection, schedule: Q01DX009 (ip), vehicle: saline",124 % of control
same,T/C,[8],119 % of control
same,T/C,[9],169 % of control
same,T/C,"dose: 200.0 mg/kg/injection, schedule: Q01DX005 (ip), vehicle: saline",93 % of control
CN(C)C(N)=Nc1ccc(Cl)cc1,T/C,"dose: 12.5 mg/kg/injection, schedule: Q01DX009 (ip), vehicle: Klucel (hydroxypropylcellulose) (HPC)",97 % of control
same,T/C,"dose: 25.0 mg/kg/injection, schedule: Q01DX009 (ip), vehicle: Klucel (hydroxypropylcellulose) (HPC)",98 % of control
same,T/C,"dose: 50.0 mg/kg/injection, schedule: Q01DX009 (ip), vehicle: Klucel (hydroxypropylcellulose) (HPC)",89 % of control
CCOC(=O)C(C)(c1c(C)n(C)c2ccccc12)c1c(C)n(C)c2ccccc12,T/C,"dose: 50.0 mg/kg/injection, schedule: Q01DX001 (ip), vehicle: other",91 % of control
same,T/C,"dose: 100.0 mg/kg/injection, schedule: Q01DX001 (ip), vehicle: other",91 % of control
same,T/C,"dose: 200.0 mg/kg/injection, schedule: Q01DX001 (ip), vehicle: other",91 % of control
same,T/C,"dose: 400.0 mg/kg/injection, schedule: Q01DX001 (ip), vehicle: other",91 % of control
CC(C)N(CCN)C(C)C,T/C,[8],94 % of control
same,T/C,[9],103 % of control
same,T/C,"dose: 100.0 mg/kg/injection, schedule: Q04DX003 (ip), vehicle: saline",95 % of control
same,T/C,"dose: 200.0 mg/kg/injection, schedule: Q01DX009 (ip), vehicle: saline",103 % of control
same,T/C,"dose: 200.0 mg/kg/injection, schedule: Q04DX003 (ip), vehicle: saline",97 % of control
CCN(CC)CCN(C)CC(=O)Nc1cccc(Cl)c1C,T/C,"dose: 25.0 mg/kg/injection, schedule: Q01DX009 (ip), vehicle: saline",106 % of control
same,T/C,[8],93 % of control
same,T/C,"dose: 75.0 mg/kg/injection, schedule: Q01DX001 (ip), vehicle: saline",101 % of control
same,T/C,[9],98 % of control
same,T/C,"dose: 150.0 mg/kg/injection, schedule: Q01DX001 (ip), vehicle: saline",102 % of control
same,T/C,"dose: 150.0 mg/kg/injection, schedule: Q01DX009 (ip), vehicle: saline",100 % of control
CCCCN(CCCC)CC(C)O (stereo not given),T/C,[5],101 % of control
same,T/C,"dose: 25.0 mg/kg/injection, schedule: Q04DX003 (ip), vehicle: saline with Tween-80",104 % of control
same,T/C,[6],95 % of control
same,T/C,"dose: 50.0 mg/kg/injection, schedule: Q04DX003 (ip), vehicle: saline with Tween-80",96 % of control
same,T/C,[7],104 % of control
same,T/C,"dose: 100.0 mg/kg/injection, schedule: Q04DX003 (ip), vehicle: saline with Tween-80",98 % of control and 101 % of control
O=S(=O)(c1ccccc1)C(Br)c1ccccc1 (stereo not given),T/C,[10],101 % of control
same,T/C,[11],105 % of control
same,T/C,"dose: 400.0 mg/kg/injection, schedule: Q04DX002 (ip), vehicle: Klucel (hydroxypropylcellulose) (HPC)",97 % of control
O=C(OC(=O)c1ccncc1)c1ccncc1,T/C,"dose: 75.0 mg/kg/injection, schedule: Q04DX003 (ip), vehicle: saline",94 % of control
same,T/C,"dose: 150.0 mg/kg/injection, schedule: Q04DX003 (ip), vehicle: saline",92 % of control
same,T/C,"dose: 300.0 mg/kg/injection, schedule: Q04DX003 (ip), vehicle: saline",110 % of control
CCn1/c(=N\N=O)sc2ccccc21,T/C,[1],96 % of control
O=C1c2ccccc2-c2ccc(-c3ccccc3)c3cccc1c23,T/C,"dose: 50.0 mg/kg/injection, schedule: Q04DX002 (ip), vehicle: Klucel (hydroxypropylcellulose) (HPC)",105 % of control
same,T/C,[10],102 % of control
same,T/C,[11],98 % of control
same,T/C,[12],105 % of control
same,T/C,"dose: 400.0 mg/kg/injection, schedule: Q04DX002 (ip), vehicle: saline with Tween-80",98 % of control
O=C(Nc1ccccc1C(F)(F)F)N(CC(O)c1ccccc1)C1CCCCC1 (stereo not given),T/C,"dose: 100.0 mg/kg/injection, schedule: Q01DX009 (ip), vehicle: Klucel (hydroxypropylcellulose) (HPC)",106 % of control
same,T/C,"dose: 200.0 mg/kg/injection, schedule: Q01DX009 (ip), vehicle: Klucel (hydroxypropylcellulose) (HPC)",95 % of control
same,T/C,"dose: 400.0 mg/kg/injection, schedule: Q01DX009 (ip), vehicle: Klucel (hydroxypropylcellulose) (HPC)",100 % of control
OCC(O)C(O)C(O)/C=N\Nc1ccc(Br)cc1 (stereo not given),T/C,"dose: 50.0 mg/kg/injection, schedule: Q04DX002 (ip), vehicle: saline with Tween-80",93 % of control
same,T/C,"dose: 100.0 mg/kg/injection, schedule: Q04DX002 (ip), vehicle: saline with Tween-80",95 % of control
same,T/C,[12],87 % of control
